Measurements published in US9556150B2, “Inhibitors of bruton's tyrosine kinase” (Hoffmann-La Roche Inc., priority 2013, dated 2017).
Counter-ions that a name gives are not always drawn.

Target: Bruton's Tyrosine Kinase (BTK), inactivated state (Homo sapiens (Human), UniProt Q06187)
Test: Bruton's Tyrosine Kinase (BTK) Inhibition TR-FRET (Time Resolved FRET) competition assay
Type: binding
Conditions: TR-FRET competition with Kinase Tracer 178, BTK-Eu complex, 18-24 h at 14° C.
Description: Bruton's Tyrosine Kinase (BTK) Inhibition TR-FRET (Time Resolved FRET) Assay
This BTK competition assay measures compound potency (IC50) for the inactivated state of Bruton's Tyrosine Kinase using FRET (Förster/Fluorescence Resonance Energy Transfer) technology. The BTK-Eu complex was incubated on ice one hour prior to use at a starting concentration of 50 nM BTK-Bioease™: 10 nM Eu-streptavidin (Perkin-Elmer Catalog#AD0062). The assay buffer consisted of 20 mM HEPES (pH 7.15), 0.1 mM DTT, 10 mM MgCl2, 0.5 mg/ml BSA with 3% Kinase Stabilizer (Fremont Biosolutions, Catalog #STB-K02). After 1 h, the reaction mixture from above was diluted 10 fold in assay buffer to make 5 nM BTK: 1 nM Eu-Streptavidin complex (donor fluorophore). 18 μl of a mixture of 0.11 nM BTK-Eu and 0.11 nM Kinase Tracer 178 (Invitrogen, Catalog #PV5593,) with BTK-Eu alone as no negative control, was then dispensed into 384-well flat bottom plates (Greiner, 784076). Compounds to be tested in assay were prepared as 10× concentrations and serial dilution in half-log increments was performed in DMSO so as to generate 10 point curves. To initiate the FRET reaction, compounds prepared as 10× stock in DMSO was added to the plates and the plates were incubated 18-24 h at 14° C.
After the incubation the plates were read on a BMG Pherastar Fluorescent plate reader (or equivalent) and used to measure the emission energy from the europium donor fluorophore (620 nm emission) and the FRET (665 nm emission). The negative control well values were averaged to obtain the mean minimum. The positive “no inhibitor” control wells were averaged to obtain the mean maximum. Percent of maximal FRET was calculated using following equation: % max FRET=100×[(FSR cmpd−FSR mean min)/(FSR mean max−FSR mean min)]
where FSR=FRET Signal ratio. % Max FRET curves were plotted in Activity Base (Excel) and the IC50(%), hill slope, z′ and % CV were determined. The mean IC50 and standard deviation will be derived from duplicate curves (singlet inhibition curves from two independent dilutions) using Microsoft Excel.
Representative compound data for this assay are listed below in Table II.

Sequence of Bruton's Tyrosine Kinase (BTK), inactivated state (Q06187 whole entry): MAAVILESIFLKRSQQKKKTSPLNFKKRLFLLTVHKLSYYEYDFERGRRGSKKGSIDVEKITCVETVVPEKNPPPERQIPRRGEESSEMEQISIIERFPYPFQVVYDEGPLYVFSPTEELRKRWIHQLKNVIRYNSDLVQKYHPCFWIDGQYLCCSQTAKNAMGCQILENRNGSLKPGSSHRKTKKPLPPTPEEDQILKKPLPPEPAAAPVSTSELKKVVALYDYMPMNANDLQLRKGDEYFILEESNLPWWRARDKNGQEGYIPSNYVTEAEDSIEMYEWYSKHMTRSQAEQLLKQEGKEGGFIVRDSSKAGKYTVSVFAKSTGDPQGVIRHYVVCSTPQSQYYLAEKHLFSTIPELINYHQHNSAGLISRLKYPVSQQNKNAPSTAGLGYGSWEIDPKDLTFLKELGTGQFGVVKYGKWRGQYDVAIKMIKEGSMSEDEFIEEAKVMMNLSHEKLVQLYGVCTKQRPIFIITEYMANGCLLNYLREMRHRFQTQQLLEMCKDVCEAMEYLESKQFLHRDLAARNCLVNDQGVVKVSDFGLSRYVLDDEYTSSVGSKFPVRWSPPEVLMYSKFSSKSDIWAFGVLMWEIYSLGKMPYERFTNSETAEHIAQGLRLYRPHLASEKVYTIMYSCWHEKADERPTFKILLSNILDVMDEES

Row | SMILES | IC50 [nM]
1 | COc1cc(Oc2cccc(F)c2F)ccc1-n1ncc(C(=O)c2cc3cc(C(=O)N4CCOCC4)ccc3[nH]2)c1N [Example I-28, {5-Amino-1-[4-(2,3-difluoro-phenoxy)-2-methoxy-phenyl]-1H-pyrazol-4-yl}-[5-(morpholine-4-carbonyl)-1H-indol-2-yl]-methanone] | 6.9
2 | Nc1c(C(=O)c2cc3cc(C(=O)N4CCOCC4)ccc3[nH]2)cnn1-c1ccc(Oc2cccc(F)c2F)cc1O [Example I-29, {5-Amino-1-[4-(2,3-difluoro-phenoxy)-2-hydroxy-phenyl]-1H-pyrazol-4-yl}-[5-(morpholine-4-carbonyl)-1H-indol-2-yl]-methanone] | 4.3
3 | COC(=O)c1ccc2[nH]c(C(=O)c3cnn(-c4ccc(Oc5cccc(C#N)c5)cc4C)c3N)cc2c1 [Example I-31, 2-{5-Amino-1-[4-(3-cyano-phenoxy)-2-methyl-phenyl]-1H-pyrazole-4-carbonyl}-H-indole-5-carboxylic acid methyl ester] | 29
4 | N#Cc1cccc(Oc2ccc(-n3ncc(C(=O)c4cc5cc(Br)ccc5[nH]4)c3N)c(Cl)c2)c1 [Example I-33, 3-{4-[5-Amino-4-(5-bromo-1H-indole-2-carbonyl)-pyrazol-1-yl]-3-chloro-phenoxy}-benzonitrile] | 430
5 | NC(=O)c1cccc(Oc2ccc(-n3ncc(C(=O)c4cc5cc(C(=O)N6CCOCC6)ccc5[nH]4)c3N)c(Cl)c2)c1 [Example I-37, 3-(4-{5-Amino-4-[5-(morpholine-4-carbonyl)-1H-indole-2-carbonyl]-pyrazol-1-yl}-3-chloro-phenoxy)-benzamide] | 50
6 | COCCNC(=O)c1ccc2[nH]c(C(=O)c3cnn(-c4ccc(Oc5cccc(C#N)c5)cc4C)c3N)nc2c1 [Example I-40, 2-{5-Amino-1-[4-(3-cyano-phenoxy)-2-methyl-phenyl]-1H-pyrazole-4-carbonyl}-1H-benzoimidazole-5-carboxylic acid (2-methoxy-ethyl)-amide] | 23
7 | N#CNC(=O)c1ccc2[nH]c(C(=O)c3cnn(-c4ccc(Oc5cccc(C#N)c5)cc4Cl)c3N)cc2c1 [Example I-41, 2-{5-Amino-1-[2-chloro-4-(3-cyano-phenoxy)-phenyl]-1H-pyrazole-4-carbonyl}-N-cyano-1H-indole-5-carboxylic acid amide] | 52
8 | N#Cc1cccc(Oc2ccc(-n3ncc(C(=O)c4cc5cc(C(=O)NS(=O)(=O)C6CC6)ccc5[nH]4)c3N)c(Cl)c2)c1 [Example I-45, Cyclopropanesulfonic acid (2-{5-amino-1-[2-chloro-4-(3-cyano-phenoxy)-phenyl]-1H-pyrazole-4-carbonyl}-1H-indole-5-carbonyl)-amide] | 1.7
9 | CN1CCN(C(=O)c2ccc3[nH]c(C(=O)c4cnn(-c5ccc(Oc6ccccc6C(=O)N(C)C)cc5Cl)c4N)cc3c2)CC1 [Example I-46, 2-(4-{5-Amino-4-[5-(4-methyl-piperazine-1-carbonyl)-1H-indole-2-carbonyl]-pyrazol-1-yl}-3-chloro-phenoxy)-N,N-dimethyl-benzamide] | 4.2

Continued by falling IC50, values first:

Row | IC50 [nM] | SMILES
10 | 150 | COC(=O)c1ccc2[nH]c(C(=O)c3cnn(-c4ccc(Oc5cccc(C#N)c5)cc4C)c3N)nc2c1 [Example I-38, 2-{5-Amino-1-[4-(3-cyano-phenoxy)-2-methyl-phenyl]-1H-pyrazole-4-carbonyl}-1H-benzoimidazole-5-carboxylic acid methyl ester]
11 | 130 | Cc1cc(Oc2cccc(C#N)c2)ccc1-n1ncc(C(=O)c2nc3cc(C(=O)O)ccc3[nH]2)c1N [Example I-42, 2-{5-Amino-1-[4-(3-cyano-phenoxy)-2-methyl-phenyl]-1H-pyrazole-4-carbonyl}-1H-benzoimidazole-5-carboxylic acid]
12 | 74 | COc1nc(Oc2cccc(F)c2F)ccc1-n1ncc(C(=O)c2cc3cc(C(=O)N4CCOCC4)ccc3[nH]2)c1N [Example I-25, {5-Amino-1-[6-(2,3-difluoro-phenoxy)-2-methoxy-pyridin-3-yl]-1H-pyrazol-4-yl}-[5-(morpholine-4-carbonyl)-1H-indol-2-yl]-methanone]
13 | 25.1 | N#Cc1cccc(Oc2ccc(-n3ncc(C(=O)c4cc5cc(C(=O)O)ccc5[nH]4)c3N)c(Cl)c2)c1 [Example I-34, 2-{5-Amino-1-[2-chloro-4-(3-cyano-phenoxy)-phenyl]-1H-pyrazole-4-carbonyl}-1H-indole-5-carboxylic acid]
14 | 24 | Cc1cc(Oc2cccc(C#N)c2)ccc1-n1ncc(C(=O)c2nc3cc(C(=O)N4CCOCC4)ccc3[nH]2)c1N [Example I-39, 3-(4-{5-Amino-4-[5-(morpholine-4-carbonyl)-1H-benzoimidazole-2-carbonyl]-pyrazol-1-yl}-3-methyl-phenoxy)-benzonitrile]
15 | 22 | Cc1cc(Oc2cccc(C#N)c2)ccc1-n1ncc(C(=O)c2cc3cc(C(=O)O)ccc3[nH]2)c1N [Example I-32, 2-{5-Amino-1-[4-(3-cyano-phenoxy)-2-methyl-phenyl]-1H-pyrazole-4-carbonyl}-H-indole-5-carboxylic acid]
16 | 14 | Cc1cc(Oc2cccc(F)c2F)ccc1-n1ncc(C(=O)c2cc3cc(C(=O)O)ccc3[nH]2)c1N [Example I-26, 2-{5-Amino-1-[4-(2,3-difluoro-phenoxy)-2-methyl-phenyl]-1H-pyrazole-4-carbonyl}-1H-indole-5-carboxylic acid]
17 | 8 | CN1CCN(C(=O)c2ccc3[nH]c(C(=O)c4cnn(-c5ccc(Oc6cccc(C#N)c6)cc5Cl)c4N)cc3c2)CC1 [Example I-44, 3-(4-{5-Amino-4-[5-(4-methyl-piperazine-1-carbonyl)-1H-indole-2-carbonyl]-pyrazol-1-yl}-3-chloro-phenoxy)-benzonitrile hydrochloride salt]
18 | 6.1 | N#Cc1cccc(Oc2ccc(-n3ncc(C(=O)c4cc5cc(C(=O)N6CCOCC6)ccc5[nH]4)c3N)c(Cl)c2)c1 [Example I-30, 3-(4-{5-Amino-4-[5-(morpholine-4-carbonyl)-1H-indole-2-carbonyl]-pyrazol-1-yl}-3-chloro-phenoxy)-benzonitrile]
19 | 5 | Cc1cc(Oc2cccc(C#N)c2)ccc1-n1ncc(C(=O)c2cc3cc(C(=O)NCCN)ccc3[nH]2)c1N [Example I-36, 2-{5-Amino-1-[4-(3-cyano-phenoxy)-2-methyl-phenyl]-1H-pyrazole-4-carbonyl}-H-indole-5-carboxylic acid (2-amino-ethyl)-amide]
20 | 3.7 | Cc1cc(OCc2ccc(Cl)cc2)ccc1-n1ncc(C(=O)c2cc3cc(C(=O)N4CCOCC4)ccc3[nH]2)c1N [Example I-27, {5-Amino-1-[4-(4-chloro-benzyloxy)-2-methyl-phenyl]-1H-pyrazol-4-yl}-[5-(morpholine-4-carbonyl)-1H-indol-2-yl]-methanone]
21 | 1.8 | COCCNC(=O)c1ccc2[nH]c(C(=O)c3cnn(-c4ccc(Oc5cccc(F)c5F)cc4C)c3N)cc2c1 [Example I-35, 2-{5-Amino-1-[4-(2,3-difluoro-phenoxy)-2-methyl-phenyl]-1H-pyrazole-4-carbonyl}-1H-indole-5-carboxylic acid (2-methoxy-ethyl)-amide]
22 | 1.3 | Cc1cc(Oc2ccccc2C#N)ccc1-n1ncc(C(=O)c2cc3cc(C(=O)N4CCOCC4)ccc3[nH]2)c1N [Example I-43, 2-(4-{5-Amino-4-[5-(morpholine-4-carbonyl)-1H-indole-2-carbonyl]-pyrazol-1-yl}-3-methyl-phenoxy)-benzonitrile]
